Measured values reported in patent US7612087B2, “Heterocyclic compounds as inhibitors of beta-lactamases” (Novexel, priority 2002, dated 2009).

Experiments:
β-lactamase TEM1 = target: T1, β-lactamase TEM1 (Escherichia coli, UniProt P62593); assay: Inhibition of isolated β-lactamase Tem-1 (Nitrocefin hydrolysis); assay type: biochemical, E.coli 250HT21; settings: 100 μM Nitrocefin, 50 mM sodium phosphate buffer pH7.0, 37° C.
T1 construct: The β-lactamases are isolated from bacterial strains which are resistant to penicillins and cephalosporins; endogenous in cells; host or cells: E. coli 250HT21 (natural producer; French-press lysate, 100,000 g supernatant)
T1 sequence (P62593 24-286 limits assumed): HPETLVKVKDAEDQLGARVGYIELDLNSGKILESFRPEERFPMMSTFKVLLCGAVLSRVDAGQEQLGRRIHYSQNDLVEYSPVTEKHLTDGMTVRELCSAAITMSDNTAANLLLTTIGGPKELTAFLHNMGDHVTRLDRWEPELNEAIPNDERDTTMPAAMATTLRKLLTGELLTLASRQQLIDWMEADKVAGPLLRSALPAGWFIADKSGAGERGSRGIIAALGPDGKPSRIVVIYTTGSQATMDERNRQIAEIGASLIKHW
How it was run: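 TEM-1 from soluble extract of E. coli 250HT21, normalized enzyme, 100 μM Nitrocefin in 50 mM sodium phosphate pH 7.0 at 37 °C. Initial-rate hydrolysis read kinetically at 485 nm, with and without 5 min enzyme–inhibitor preincubation. CI50 from 6 or 8 concentrations in duplicate.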

β-lactamase P99 = target: T2, β-lactamase P99 (Enterobacter cloacae, UniProt P05364); assay: biochemical; settings: 100 μM Nitrocefin, 50 mM sodium phosphate buffer pH7.0, 37° C.; read-out: IC50 nM/P99
T2 construct: The β-lactamases are isolated from bacterial strains which are resistant to penicillins and cephalosporins; endogenous in cells; host or cells: Enterobacter cloacae 293HT6 (natural producer; French-press lysate, 100,000 g supernatant)
T2 sequence (P05364 21-381): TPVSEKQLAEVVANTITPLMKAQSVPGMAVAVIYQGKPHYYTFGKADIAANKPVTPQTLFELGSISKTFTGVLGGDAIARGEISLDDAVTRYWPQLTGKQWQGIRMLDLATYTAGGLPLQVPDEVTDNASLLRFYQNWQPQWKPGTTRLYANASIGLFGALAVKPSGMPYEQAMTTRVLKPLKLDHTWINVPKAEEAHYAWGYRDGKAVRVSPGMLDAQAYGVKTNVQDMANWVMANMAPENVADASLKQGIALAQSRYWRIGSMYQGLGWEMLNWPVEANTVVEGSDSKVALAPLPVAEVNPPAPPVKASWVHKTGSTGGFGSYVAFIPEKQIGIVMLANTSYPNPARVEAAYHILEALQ
How it was run: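 P99 β-lactamase, taken from the soluble fraction of an Enterobacter cloacae 293HT6 lysate, was assayed at 37° C. in 50 mM sodium phosphate buffer pH7.0 with 100 μM Nitrocefin as the chromogenic substrate. Hydrolysis was followed kinetically at 485 nm at initial speed, with and without a 5 mn enzyme–inhibitor preincubation. Inhibitors were tested at 6 or 8 concentrations in duplicate, and IC50 was fitted with GraFit.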

E. coli 250CF1 (Tem3) = assay: microbe, parasite or virus in culture; assay type: cell-based; settings: compound at 5 mg/l, 24 hours at 37° C.; for MIC of Cefotaxime in combination with the compound: Trial 4, 250CF1 E. coli Tem3; for MIC of Piperacillin in combination with the compound: Trial 4, 250CF1 Tem3
Method: (§1) The operation is carried out as follows, using the so-called micro-dilution in liquid medium method.
(§2) A series of concentrations of the β-lactamine is prepared in the presence of a constant concentration (5 mg/l) of the product to be studied, each is then seeded with various bacterial strains.
(§3) After incubation for 24 hours in a heating chamber at 37° C., the growth inhibition is evaluated by the absence of any bacterial development, which allows the minimal inhibitory concentrations (MIC) for each strain to be determined, expressed in milligrams/l.

E. coli 250BE1 (SHV4) = assay: MIC, micro-dilution in liquid medium, β-lactamine with product at 5 mg/l; assay type: cell-based; settings: compound at 5 mg/l, 24 hours at 37° C.; for MIC of Cefotaxime in combination with the compound: Trial 7, 250BE1 E. coli SHV4; for MIC of Piperacillin in combination with the compound: Trial 7, 250BE1 SHV4
Method: as §1, §2, §3

[1] = test system: P. aeruginosa 391HT7 (PSE); assay: as above; assay type: cell-based; settings: compound at 5 mg/l, 24 hours at 37° C.; for MIC of Cefotaxime in combination with the compound: Trial 11, 391HT7 P. aeruginosa PSE; for MIC of Piperacillin in combination with the compound: Trial 11, 391HT7 PSE
Method: as §1, §2, §3

[2] = test system: S. aureus 011GO66 (PeniR); assay: as above; assay type: cell-based; settings: compound at 5 mg/l, 24 hours at 37° C.; for MIC of Cefotaxime in combination with the compound: Trial 1, 011GO66 S. aureus PeniR; for MIC of Piperacillin in combination with the compound: Trial 1, 011GO66 peniR
Method: as §1, §2, §3

E. coli 250HT26 (SHV1) = assay: as above; assay type: cell-based; settings: compound at 5 mg/l, 24 hours at 37° C.; for MIC of Cefotaxime in combination with the compound: Trial 6, 250HT26 E. coli SHV1; for MIC of Piperacillin in combination with the compound: Trial 6, 250HT26 SHV1
Method: as §1, §2, §3

E. coli 250SJ1 (Tem7) = assay: as above; assay type: cell-based; settings: compound at 5 mg/l, 24 hours at 37° C.; for MIC of Cefotaxime in combination with the compound: Trial 5, 250SJ1 E. coli Tem7; for MIC of Piperacillin in combination with the compound: Trial 5, 250SJ1 Tem7
Method: as §1, §2, §3

[3] = test system: P. aeruginosa 391HT8 (PSE); assay: as above; assay type: cell-based; settings: compound at 5 mg/l, 24 hours at 37° C.; for MIC of Cefotaxime in combination with the compound: Trial 12, 391HT8 P. aeruginosa PSE; for MIC of Piperacillin in combination with the compound: Trial 12, 391HT8 PSE
Method: as §1, §2, §3

[4] = test system: E. cloacae 293HT6 (Class C); assay: as above; assay type: cell-based; settings: compound at 5 mg/l, 24 hours at 37° C.; for MIC of Piperacillin in combination with the compound: Trial 9, 293HT6 Class; for MIC of Cefotaxime in combination with the compound: Trial 9, 293HT6 E. cloacae Class C
Method: as §1, §2, §3

Serratia 301HT6 = assay: as above; assay type: cell-based; settings: compound at 5 mg/l; Trial 10, 301HT6 Serratia; 24 hours at 37° C.
Method: as §1, §2, §3

[5] = test system: E. coli 250HT23 (Class D); assay: as above; assay type: cell-based; settings: compound at 5 mg/l, 24 hours at 37° C.; for MIC of Piperacillin in combination with the compound: Trial 8, 250HT23 Class D; for MIC of Cefotaxime in combination with the compound: Trial 8, 250HT23 E. coli Class D
Method: as §1, §2, §3

E. coli 250HT21 (Tem1) = assay: as above; assay type: cell-based; settings: compound at 5 mg/l, 24 hours at 37° C.; for MIC of Cefotaxime in combination with the compound: Trial 2, 250HT21 E. coli Tem1; for MIC of Piperacillin in combination with the compound: Trial 2, 250HT21 Tem1
Method: as §1, §2, §3

E. coli 250HT22 (Tem2) = assay: as above; assay type: cell-based; settings: compound at 5 mg/l, 24 hours at 37° C.; for MIC of Cefotaxime in combination with the compound: Trial 3, 250HT22 E. coli Tem2; for MIC of Piperacillin in combination with the compound: Trial 3, 250HT22 Tem2
Method: as §1, §2, §3

Compound	IC50 (β-lactamase TEM1)	IC50 (β-lactamase P99)	MIC of Cefotaxime in combination with the compound (E. coli 250CF1 (Tem3))	MIC of Piperacillin in combination with the compound (E. coli 250CF1 (Tem3))	MIC of Cefotaxime in combination with the compound (E. coli 250BE1 (SHV4))	MIC of Piperacillin in combination with the compound (E. coli 250BE1 (SHV4))	MIC of Cefotaxime in combination with the compound [1]	MIC of Piperacillin in combination with the compound [1]	MIC of Cefotaxime in combination with the compound [2]	MIC of Piperacillin in combination with the compound [2]	MIC of Cefotaxime in combination with the compound (E. coli 250HT26 (SHV1))	MIC of Piperacillin in combination with the compound (E. coli 250HT26 (SHV1))	MIC of Cefotaxime in combination with the compound (E. coli 250SJ1 (Tem7))	MIC of Piperacillin in combination with the compound (E. coli 250SJ1 (Tem7))	MIC of Cefotaxime in combination with the compound [3]	MIC of Piperacillin in combination with the compound [3]	MIC of Piperacillin in combination with the compound [4]	MIC of Cefotaxime in combination with the compound [4]	MIC of Cefotaxime in combination with the compound (Serratia 301HT6)	MIC of Piperacillin in combination with the compound (Serratia 301HT6)	other results
O=C(NCCc1cccnc1)[C@H]1CC[C@@H]2CN1C(=O)N2OS(=O)(=O)[O-].[Na+] (relative stereo) [Example 36, sodium salt of trans-7-oxo-N-[2-(3-pyridinyl)ethyl]-6-(sulphooxy)-1,6-diazabicyclo[3.2.1]octane-2-carboxamide]	23 nM	110 nM	0.3 µg/mL	40 µg/mL	0.3 µg/mL	>40 µg/mL	40 µg/mL	>40 µg/mL	1.2 µg/mL	1.2 µg/mL	<=0.04 μg/ml	20 µg/mL	<=0.04 μg/ml	20 µg/mL	40 µg/mL	>40 µg/mL	20 µg/mL	20 µg/mL	0.08 µg/mL	1.2 µg/mL	MIC of Piperacillin in combination with the compound [5]: 20 µg/mL; MIC of Cefotaxime in combination with the compound [5]: <=0.04 μg/ml; MIC of Cefotaxime in combination with the compound (E. coli 250HT21 (Tem1)): <=0.04 μg/ml; MIC of Piperacillin in combination with the compound (E. coli 250HT21 (Tem1)): 5 µg/mL; MIC of Cefotaxime in combination with the compound (E. coli 250HT22 (Tem2)): <=0.04 μg/ml; MIC of Piperacillin in combination with the compound (E. coli 250HT22 (Tem2)): 40 µg/mL
O=C(NCCc1ccncc1)[C@H]1CC[C@@H]2CN1C(=O)N2OS(=O)(=O)[O-].[Na+] (relative stereo) [Example 37, sodium salt of trans-7-oxo-N-[2-(4-pyridinyl)ethyl]-6-(sulphooxy)-1,6-diazabicyclo[3.2.1]octane-2-carboxamide]	29 nM	160 nM	0.3 µg/mL	40 µg/mL	0.6 µg/mL	>40 µg/mL	20 µg/mL	>40 µg/mL	1.2 µg/mL	0.6 µg/mL	<=0.04 μg/ml	20 µg/mL	0.08 µg/mL	>40 µg/mL	20 µg/mL	>40 µg/mL	40 µg/mL	>40 µg/mL	0.08 µg/mL	2.5 µg/mL	MIC of Piperacillin in combination with the compound [5]: 40 µg/mL; MIC of Cefotaxime in combination with the compound [5]: <=0.04 μg/ml; MIC of Cefotaxime in combination with the compound (E. coli 250HT21 (Tem1)): <=0.04 μg/ml; MIC of Piperacillin in combination with the compound (E. coli 250HT21 (Tem1)): 2.5 µg/mL; MIC of Cefotaxime in combination with the compound (E. coli 250HT22 (Tem2)): <=0.04 μg/ml; MIC of Piperacillin in combination with the compound (E. coli 250HT22 (Tem2)): >40 µg/mL
O=C(NCCc1ccccn1)[C@H]1CC[C@@H]2CN1C(=O)N2OS(=O)(=O)[O-].[Na+] (relative stereo) [Example 38, sodium salt of trans-7-oxo-N-[2-(2-pyridinyl)ethyl]-6-(sulphooxy)-1,6-diazabicyclo[3.2.1]octane-2-carboxamide]	35 nM	77 nM	0.3 µg/mL	20 µg/mL	0.3 µg/mL	>40 µg/mL	40 µg/mL	>40 µg/mL	1.2 µg/mL	0.6 µg/mL	<=0.04 μg/ml	40 µg/mL	<=0.04 μg/ml	>40 µg/mL	40 µg/mL	>40 µg/mL	40 µg/mL	20 µg/mL	0.08 µg/mL	1.2 µg/mL	MIC of Piperacillin in combination with the compound [5]: >40 µg/mL; MIC of Cefotaxime in combination with the compound [5]: <=0.04 μg/ml; MIC of Cefotaxime in combination with the compound (E. coli 250HT21 (Tem1)): <=0.04 μg/ml; MIC of Piperacillin in combination with the compound (E. coli 250HT21 (Tem1)): 5 µg/mL; MIC of Cefotaxime in combination with the compound (E. coli 250HT22 (Tem2)): <=0.04 μg/ml; MIC of Piperacillin in combination with the compound (E. coli 250HT22 (Tem2)): >40 µg/mL
NC(=O)c1cccc(NC(=O)[C@H]2CC[C@@H]3CN2C(=O)N3OS(=O)(=O)[O-])c1.[Na+] (relative stereo) [Example 39, sodium salt of trans-N-[3-(aminocarbonyl)phenyl]-7-oxo-6-(sulphooxy)-1,6-diazabicyclo[3.2.1]octane-2-carboxamide]	31 nM	50 nM	0.08 µg/mL	40 µg/mL	0.08 µg/mL	20 µg/mL	20 µg/mL	>40 µg/mL	2.5 µg/mL	1.2 µg/mL	<=0.04 μg/ml	40 µg/mL	<=0.04 μg/ml	>40 µg/mL	20 µg/mL	>40 µg/mL	20 µg/mL	1.2 µg/mL	<=0.04 μg/ml	0.6 µg/mL	MIC of Piperacillin in combination with the compound [5]: 10 µg/mL; MIC of Cefotaxime in combination with the compound [5]: <=0.04 μg/ml; MIC of Cefotaxime in combination with the compound (E. coli 250HT21 (Tem1)): <=0.04 μg/ml; MIC of Piperacillin in combination with the compound (E. coli 250HT21 (Tem1)): 2.5 µg/mL; MIC of Cefotaxime in combination with the compound (E. coli 250HT22 (Tem2)): <=0.04 μg/ml; MIC of Piperacillin in combination with the compound (E. coli 250HT22 (Tem2)): 20 µg/mL
